Data taken from publication PMC11466185, “Mechanisms and efficacy of small molecule latency-promoting agents to inhibit HIV reactivation ex vivo” (JCI Insight, 2024).
Where “and” joins values, the source holds several entries; their conditions need not be identical. Equal entries are not always repeated.

Experiments:
[1] = test system: PBMCs; assay: Total number of live cells (proliferation) by trypan blue staining at day 6; type: cell-based, human; conditions: for Fig 6B: total live cells relative to DMSO+CD3/28: DMSO+CD3/28 = 100
Method: Some of our candidate LPAs can block the effects of T cell activation, which could affect T cell proliferation. Therefore, we evaluated the extent to which variations in the level of infected cells may contribute to reductions in different HIV RNA transcripts. We measured the total number of viable cells (as a measure of proliferation) and the conserved U3-U5 LTR HIV DNA region (as a measure of total infection frequency) at day 6.
(A) After 6 days, the total number of live cells was measured by trypan blue staining and then normalized to the levels of the activated DMSO (% of activated DMSO). All conditions were tested in the presence of CD3^+/CD28^+ T cell–activating beads, except for the unactivated DMSO condition. Bars indicate medians, and different colors indicate individual study participants. Comparisons were performed using Wilcoxon’s signed-rank test. (B) Total cellular DNA was extracted, and the levels of U3-U5 HIV DNA were measured to quantify infection frequency at 6 days. HIV DNA levels were normalized to copies per 10^6 cells using the input of cellular DNA (assuming 1 μg of total DNA corresponds to 160,000 cells) and then normalized to the activated DMSO control (% of activated DMSO). Bars indicate medians, and different colors indicate individual study participants.

[2] = test system: HIV transcripts (TAR, LLTR, Pol, PolyA, TatRev); assay: Latency reversal assay: cell-associated HIV transcripts (RT-ddPCR) 24 hours after anti-CD3/CD28 activation of PBMCs from ART-suppressed PWH; type: cell-based; parameters: key to TatRev: % of activated DMSO control, normalized to 1 μg total RNA; Elongated (LLTR) HIV transcripts, median relative to activated DMSO, initial screening / Midtranscribed (Pol) HIV transcripts, median relative to activated DMSO, initial screening / Multiply spliced (TatRev) HIV transcripts, median relative to activated DMSO, initial screening: concentration or dose not given beside the values; conditions: for Pol HIV transcripts (DMSO αCD3/28 = 100) / PolyA HIV transcripts (DMSO αCD3/28 = 100) / TatRev HIV transcripts (DMSO αCD3/28 = 100): αCD3/28-activated, ruxolitinib 4μM, triptolide 25-50nM, alvocidib 40nM, dinaciclib 8nM, AZD4573 8nM, quercetin 5μM, pladienolide B 10nM, isoginkgetin 25μM, herboxidiene 5nM, KRIBB11 2.5μM, tanespimycin 5μM, mithramycin A 25nM; for PolyA / TatRev: DMSO+αCD3/28 = 100, Fig 3A; for LLTR/TAR / PolyA/LLTR / TatRev/PolyA: DMSO+CD3/28 = 1, Fig 3B, C and D
Method: We selected 26 small molecules targeting pathways implicated in HIV transcription or the blocks to HIV transcription underlying latency (Supplemental Table 1). […] Initial screening of all drugs was performed in freshly isolated PBMCs from 2 ART-suppressed individuals (Figure 1 and Supplemental Figure 2). PBMCs were cultured in the presence of individual drugs in DMSO or DMSO alone as a control, subsequently activated (anti-CD3/CD28), and harvested after 24 hours. […] The progression through different blocks to HIV transcription was quantified by measuring the levels of initiated (TAR), 5′ elongated (LLTR), midtranscribed/unspliced (Pol), completed (PolyA), and multiply spliced (TatRev) HIV transcripts. The levels of those HIV transcripts were normalized to 1 μg of total cellular RNA (to normalize for the effect of the drug on global cellular transcription) and expressed as a percentage of the activated DMSO control.
Figure 1 Screening of candidate LPAs by measuring the change in multiply spliced HIV transcripts after activation. Each drug was tested in PBMCs from 2 ART-suppressed study participants (denoted in the legend by varying symbol shapes). PBMCs were aliquoted into wells at 6 × 10^6 cells/well. After activation, the cells were cultured with antiretrovirals in the presence of individual drugs in DMSO or DMSO alone as control. All conditions were tested in the presence of CD3/28 T cell–activating beads, except for the unactivated DMSO condition. (A) After 24 hours, the viability was measured by trypan blue staining and then normalized to the levels of the activated DMSO (% of activated DMSO). Bars indicate medians. (B) Total cellular RNA was extracted, and the levels of multiply spliced HIV transcripts (TatRev) were measured by RT-ddPCR, normalized to 1 μg of total cellular RNA, and expressed as a percentage of the activated DMSO control (% of activated DMSO). RT-dd, reverse transcription digital droplet; vRNA, viral RNA; HAT, histone acetyltransferase.
The ability of our candidate LPAs to inhibit HIV transcriptional progression after activation was examined in PBMCs from a minimum of 7 PWH per drug tested (Figure 3). PBMCs were cultured in the presence of individual drugs in DMSO or in DMSO alone as a control, subsequently activated (anti-CD3/CD28), and harvested after 24 hours.
Each drug was tested in PBMCs from 7 ART-suppressed study participants. The PBMCs were aliquoted into wells at 6 × 10^6 cells/well. After activation, the cells were cultured with antiretrovirals in the presence of individual drugs in DMSO or DMSO alone as control. All conditions were tested in the presence of CD3/28 T cell–activating beads, except for the unactivated DMSO condition. After 24 hours, total RNA was extracted, and the progression through different stages of HIV transcription was quantified by measuring the levels of initiated (TAR), 5′ elongated (LLTR), midtranscribed/unspliced (Pol), completed (PolyA), and multiply spliced (TatRev) HIV transcripts. (A) The levels of all HIV transcripts were normalized to 1 μg of total cellular RNA and expressed as a percentage of the activated DMSO control (% of activated DMSO). Medians are shown as well as the individual values per study participant in different colors. (B–D) The effect of each drug on HIV transcriptional progression after activation was analyzed by the ratio of one HIV transcript to another. Ratios are independent of HIV infection frequency or normalization to cell numbers. Shown are the proportion of (B) all HIV transcripts that were elongated (LLTR/TAR), (C) elongated HIV transcripts that were completed spliced (PolyA/LLTR), and (D) completed transcripts that were multiply spliced (TatRev/PolyA).

[3] = 5nM, 24 h after αCD3/28 activation, each column one participant

`CO[C@H]([C@@H](C)[C@H]1O[C@]1(C)C[C@H](C)/C=C/C=C(\C)[C@H]1O[C@@H](CC(=O)O)CC[C@@H]1C)[C@@H](C)O` [herboxidiene] was tested, and the “Total live cell numbers (proliferation) compared with activated DMSO (in words)” value ([1]; day 6, Figure 6A) was “did not change proliferation rates”, the “Fig 6B: total live cells relative to DMSO+CD3/28” value ([1]; participant 150b) was 68 and the “Fig 6B: total live cells relative to DMSO+CD3/28” value ([1]; participant 1379) was 22.5. For the same compound, the “Fig 6B: total live cells relative to DMSO+CD3/28” value ([1]; participant 2027) was 98.18, the “Fig 6B: total live cells relative to DMSO+CD3/28” value ([1]; participant 2147a) was 103.96 and the “Fig 6B: total live cells relative to DMSO+CD3/28” value ([1]; participant 2147b) was 121.98. For the same compound, the “Fig 6B: total live cells relative to DMSO+CD3/28” value ([1]; participant 2161) was 132.2, the “Fig 6B: total live cells relative to DMSO+CD3/28” value ([1]; participant 2256) was 89.47 and the “Fig 6B: total live cells relative to DMSO+CD3/28” value ([1]; participant 2461) was 80.23. For the same compound, the “Fig 6B: total live cells relative to DMSO+CD3/28” value ([1]; participant 5557) was 117.65, the “Total number of live cells (Fig 6A)” value ([1]; study participant 1379, day 6) was 82.06 % of activated DMSO and the “Total number of live cells (Fig 6A)” value ([1]; study participant 2027, day 6) was 34.68 % of activated DMSO. The “Total number of live cells (Fig 6A)” value ([1]; study participant 2147a, day 6) was 115.89 % of activated DMSO, the “Total number of live cells (Fig 6A)” value ([1]; study participant 2147b, day 6) was 188.02 % of activated DMSO and the “Total number of live cells (Fig 6A)” value ([1]; study participant 2161, day 6) was 72.75 % of activated DMSO. For the same compound, the “Total number of live cells (Fig 6A)” value ([1]; study participant 2256, day 6) was 87.5 % of activated DMSO, the “Total number of live cells (Fig 6A)” value ([1]; study participant 2461, day 6) was 32.33 % of activated DMSO and the “Total number of live cells (Fig 6A)” value ([1]; study participant 5557, day 6) was 99.29 % of activated DMSO. The “LLTR HIV transcripts (DMSO+αCD3/28 = 100)” value [2, 3] was 81.19 and 43.81 and 65.61 and 39.82 and 46.55 and 19.9 and 41.59, the “Pol HIV transcripts (DMSO+αCD3/28 = 100)” value [2, 3] was 51.16 and 73 and 22.91 and 16.22 and 3.35 and 168.38 and the “TAR HIV transcripts (DMSO+αCD3/28 = 100)” value [2, 3] was 84.02 and 77.63 and 124.48 and 122.07 and 106.99 and 116.67. The “TatRev HIV transcripts (DMSO+αCD3/28 = 100)” value [2, 3] was 33.33 and 25.2 and 10.9 and 51.8 and 0 (2×), the “HIV transcriptional elongation, ratio LLTR/TAR” value ([2]; 24 hours, compared with activated DMSO, Figure 3B) was “Significant reductions” and the “Reduction of multiply spliced or completed HIV transcripts in drug screen (selection as candidate LPA)” value ([2]; initial screening, 2 participants, 24 hours) was “more than 50%”. The “Multiply spliced (TatRev) HIV transcripts, median relative to activated DMSO, initial screening” value ([2]; initial screening, 2 participants, 24 hours, Figure 1B, Supplemental Figure 2) was 23%, the “Pol HIV transcripts (DMSO αCD3/28 = 100)” value ([2]; participant 150b) was 43.29 and the “PolyA HIV transcripts (DMSO αCD3/28 = 100)” value (“PolyA HIV transcripts” below) ([2]; participant 150b) was 23.53. For the same compound, the “TatRev HIV transcripts (DMSO αCD3/28 = 100)” value ([2]; participant 150b) was 2.69, the “Pol HIV transcripts (DMSO αCD3/28 = 100)” value ([2]; participant 1379) was 47.94 and the “PolyA HIV transcripts” value ([2]; participant 1379) was 28.08. For the same compound, the “TatRev HIV transcripts (DMSO αCD3/28 = 100)” value ([2]; participant 1379) was 171.43, the “Pol HIV transcripts (DMSO αCD3/28 = 100)” value ([2]; participant 2027) was 133.33 and the “PolyA HIV transcripts” value ([2]; participant 2027) was 36.92. For the same compound, the “TatRev HIV transcripts (DMSO αCD3/28 = 100)” value ([2]; participant 2027) was 0, the “Pol HIV transcripts (DMSO αCD3/28 = 100)” value ([2]; participant 2147a) was 105.88 and the “PolyA HIV transcripts” value ([2]; participant 2147a) was 21.76. The “TatRev HIV transcripts (DMSO αCD3/28 = 100)” value ([2]; participant 2147a) was 28.42, the “Pol HIV transcripts (DMSO αCD3/28 = 100)” value ([2]; participant 2161) was 169.45 and the “PolyA HIV transcripts” value ([2]; participant 2161) was 268.67. The “TatRev HIV transcripts (DMSO αCD3/28 = 100)” value ([2]; participant 2161) was 176.87, the “Pol HIV transcripts (DMSO αCD3/28 = 100)” value ([2]; participant 2256) was 18.46 and the “PolyA HIV transcripts” value ([2]; participant 2256) was 16.27. The “TatRev HIV transcripts (DMSO αCD3/28 = 100)” value ([2]; participant 2256) was 1.4, the “PolyA HIV transcripts” value ([2]; participant 2461) was 1692.31 and the “Pol HIV transcripts (DMSO αCD3/28 = 100)” value ([2]; participant 5557) was 23.16. For the same compound, the “PolyA HIV transcripts” value ([2]; participant 5557) was 23.33, the “TatRev HIV transcripts (DMSO αCD3/28 = 100)” value ([2]; participant 5557) was 0 and the “Multiply spliced HIV transcripts (TatRev) (Fig 1B)” value ([2]; study participant 150a, 24 hours) was 33.33 % of activated DMSO. For the same compound, the PolyA ([2]; study participant 150a) was 73.21, the TatRev ([2]; study participant 150a) was 33.33 and the LLTR/TAR ([2]; study participant 1379) was 0.186. It also gave a PolyA/LLTR ([2]; study participant 1379) of 0.4248, a TatRev/PolyA ([2]; study participant 1379) of 0 and a PolyA ([2]; study participant 1379) of 8.45. The TatRev ([2]; study participant 1379) was 0, the LLTR/TAR ([2]; study participant 2027) was 0.85 and the PolyA/LLTR ([2]; study participant 2027) was 0.67. For the same compound, the PolyA ([2]; study participant 2027) was 43.76, the “Multiply spliced HIV transcripts (TatRev) (Fig 1B)” value ([2]; study participant 2147b, 24 hours) was 12.13 % of activated DMSO and the LLTR/TAR ([2]; study participant 2147b) was 0.2964. It also gave a PolyA/LLTR ([2]; study participant 2147b) of 0.9546, a TatRev/PolyA ([2]; study participant 2147b) of 0.3499 and a PolyA ([2]; study participant 2147b) of 22.4. For the same compound, the TatRev ([2]; study participant 2147b) was 10.9, the LLTR/TAR ([2]; study participant 2256) was 0.3813 and the PolyA/LLTR ([2]; study participant 2256) was 0.9973. For the same compound, the TatRev/PolyA ([2]; study participant 2256) was 1.116, the PolyA ([2]; study participant 2256) was 46.43 and the TatRev ([2]; study participant 2256) was 51.8. It also gave an LLTR/TAR ([2]; study participant 2750) of 0.5214, a PolyA/LLTR ([2]; study participant 2750) of 1.543 and a TatRev/PolyA ([2]; study participant 2750) of 0.3728. For the same compound, the PolyA ([2]; study participant 2750) was 67.59, the TatRev ([2]; study participant 2750) was 25.2 and the LLTR/TAR ([2]; study participant 5557) was 0.3565. For the same compound, the PolyA/LLTR ([2]; study participant 5557) was 0.117, the TatRev/PolyA ([2]; study participant 5557) was 0 and the PolyA ([2]; study participant 5557) was 4.86. The TatRev ([2]; study participant 5557) was 0.
